According to patent US9604933B2, “Pyrazolochalcones as potential anticancer agents” (COUNCIL OF SCIENTIFIC AND INDUSTRIAL RESEARCH, priority 2013, dated 2017):

Experiments:
[1] = tested on: NCIH322M; experiment: NCI SRB cytotoxicity, non-small cell lung NCIH322M; format: cell-based; conditions: Homo sapiens, NCI-H322M, 48 h exposure
Description: (§1) The pyrazolochalcones (7e, 8e, 10e, 11e, 12e, 13e and 8f) have been tested against fifty nine human tumor cell lines derived from nine cancer types (leukemia, non-small cell lung cancer, colon cancer, CNS cancer, melanoma, ovarian cancer, renal cancer, prostate cancer and breast cancer) as per the NCI protocol. For each compound, dose response curves for individual cell lines have been measured at a minimum of five concentrations at 10 fold dilutions. A protocol of 48 h continuous drug exposure has been used, and a sulforhodamine B (SRB) protein assay has been used to estimate cell viability or growth. The concentration for 50% cell growth inhibition (GI50), 50% cell death (LC50, 50% growth) and total cell growth inhibition (TGI, 0% growth) values were tabulated (Table-1). DMSO was used as control to calculate the values of GI50, LC50 and TGI. The compounds 7e, 8e, 10e, 11e, 12e, 13e and 8f has been evaluated for their in vitro cytotoxicity in […] cell lines from nine human cancer types of leukemia (K-562, SR), non-small cell lung (Hop-62, NCI-H226, NCI-H522), colon (HCT-116, HCT-15, HCC-2998), CNS (SF-539), melanoma (SK-MEL-5, UACC-62, M14), ovarian (IGROV1), renal (A498), prostate (PC3) and breast (BT-549, MDA-MB-435, HS578T) origin. The results are expressed as percent of cell growth determined relative to that of untreated control cells (Table 2).

[2] = tested on: Melanoma; experiment: NCI SRB cytotoxicity, melanoma panel average; format: cell-based, human; conditions: average of cell lines; for GI50 / LC50: Homo sapiens; for GI50: read-out: Log10 GI50 (concentration in mol/L causing 50% growth inhibition) (converted); for LC50: read-out: Log10 LC50 (concentration in mol/L causing 50% cell death) (converted)
Description: as §1
(§2) Each cancer type represents the average of six to eight different cancer cell lines.

[3] = tested on: NCI-H460; experiment: NCI SRB cytotoxicity, non-small cell lung NCI-H460; format: cell-based; conditions: Homo sapiens, 48 h exposure
Description: as §1

[4] = tested on: RXF 393; experiment: NCI SRB cytotoxicity, renal RXF 393; format: cell-based; conditions: Homo sapiens, 48 h exposure
Description: as §1

[5] = tested on: A549/ATCC; experiment: NCI SRB cytotoxicity, non-small cell lung A549/ATCC; format: cell-based; conditions: Homo sapiens, 48 h exposure
Description: as §1

[6] = tested on: DU-145; experiment: NCI SRB cytotoxicity, prostate DU-145; format: cell-based; conditions: Homo sapiens, 48 h exposure
Description: as §1

[7] = tested on: SNB-19; experiment: NCI SRB cytotoxicity, CNS SNB-19; format: cell-based; conditions: Homo sapiens, 48 h exposure
Description: as §1

[8] = tested on: SF-539; experiment: NCI SRB cytotoxicity, CNS SF-539; format: cell-based; conditions: Homo sapiens, 48 h exposure
Description: as §1

[9] = tested on: NCI/ADR-RES; experiment: NCI SRB cytotoxicity, ovarian NCI/ADR-RES; format: cell-based; conditions: Homo sapiens, 48 h exposure
Description: as §1

[10] = tested on: HOP92; experiment: NCI SRB cytotoxicity, non-small cell lung HOP92; format: cell-based; conditions: Homo sapiens, HOP-92, 48 h exposure
Description: as §1

[11] = tested on: CNS; experiment: NCI SRB cytotoxicity, CNS panel average; format: cell-based, human; conditions: average of cell lines; for GI50 / LC50: Homo sapiens; for GI50: read-out: Log10 GI50 (concentration in mol/L causing 50% growth inhibition) (converted); for LC50: read-out: Log10 LC50 (concentration in mol/L causing 50% cell death) (converted)
Description: as §1, §2

[12] = tested on: Ovarian; experiment: NCI SRB cytotoxicity, ovarian panel average; format: cell-based, human; conditions: average of cell lines; for GI50 / CC50: Homo sapiens; for GI50: read-out: Log10 GI50 (concentration in mol/L causing 50% growth inhibition) (converted); for CC50: read-out: Log10 LC50 (concentration in mol/L causing 50% cell death) (converted)
Description: as §1, §2

[13] = tested on: UACC-62; experiment: NCI SRB cytotoxicity, melanoma UACC-62; format: cell-based; conditions: Homo sapiens, 48 h exposure
Description: as §1

[14] = tested on: MCF7; experiment: NCI SRB cytotoxicity, breast MCF7; format: cell-based; conditions: Homo sapiens, 48 h exposure
Description: as §1

[15] = tested on: A498; experiment: NCI SRB cytotoxicity, renal A498; format: cell-based; conditions: Homo sapiens, 48 h exposure
Description: as §1

[16] = tested on: ACHN; experiment: NCI SRB cytotoxicity, renal ACHN; format: cell-based; conditions: Homo sapiens, 48 h exposure
Description: as §1

[17] = tested on: TK-10; experiment: NCI SRB cytotoxicity, renal TK-10; format: cell-based; conditions: Homo sapiens, 48 h exposure
Description: as §1

[18] = tested on: MOLT-4; experiment: NCI SRB cytotoxicity, leukemia MOLT-4; format: cell-based; conditions: Homo sapiens, 48 h exposure
Description: as §1

[19] = tested on: SNB-75; experiment: NCI SRB cytotoxicity, CNS SNB-75; format: cell-based; conditions: Homo sapiens, 48 h exposure
Description: as §1

[20] = tested on: Non-small cell lung; experiment: NCI SRB cytotoxicity, non-small cell lung panel average; format: cell-based, human; conditions: average of cell lines; for GI50 / LC50: Homo sapiens; for GI50: read-out: Log10 GI50 (concentration in mol/L causing 50% growth inhibition) (converted); for LC50: read-out: Log10 LC50 (concentration in mol/L causing 50% cell death) (converted)
Description: as §1, §2

[21] = tested on: SF-268; experiment: NCI SRB cytotoxicity, CNS SF-268; format: cell-based; conditions: Homo sapiens, 48 h exposure
Description: as §1

[22] = tested on: CCRF-CEM; experiment: NCI SRB cytotoxicity, leukemia CCRF-CEM; format: cell-based; conditions: Homo sapiens, 48 h exposure
Description: as §1

[23] = tested on: SK-MEL-28; experiment: NCI SRB cytotoxicity, melanoma SK-MEL-28; format: cell-based; conditions: Homo sapiens, 48 h exposure
Description: as §1

[24] = tested on: HCC-2998; experiment: NCI SRB cytotoxicity, colon HCC-2998; format: cell-based; conditions: Homo sapiens, 48 h exposure
Description: as §1

[25] = tested on: UO-31; experiment: NCI SRB cytotoxicity, renal UO-31; format: cell-based; conditions: Homo sapiens, 48 h exposure
Description: as §1

[26] = tested on: LOX IMVI; experiment: NCI SRB cytotoxicity, melanoma LOX IMVI; format: cell-based; conditions: Homo sapiens, 48 h exposure
Description: as §1

[27] = tested on: Colon; experiment: NCI SRB cytotoxicity, colon panel average; format: cell-based, human; conditions: average of cell lines; for GI50 / LC50: Homo sapiens; for GI50: read-out: Log10 GI50 (concentration in mol/L causing 50% growth inhibition) (converted); for LC50: read-out: Log10 LC50 (concentration in mol/L causing 50% cell death) (converted)
Description: as §1, §2

[28] = tested on: SR; experiment: NCI SRB cytotoxicity, leukemia SR; format: cell-based; conditions: Homo sapiens, 48 h exposure
Description: as §1

[29] = tested on: Leukemia; experiment: NCI SRB cytotoxicity, leukemia panel average; format: cell-based, human; conditions: average of cell lines; for GI50 / CC50: Homo sapiens; for GI50: read-out: Log10 GI50 (concentration in mol/L causing 50% growth inhibition) (converted); for CC50: read-out: Log10 LC50 (concentration in mol/L causing 50% cell death) (converted)
Description: as §1, §2

[30] = tested on: SK-OV-3; experiment: NCI SRB cytotoxicity, ovarian SK-OV-3; format: cell-based; conditions: Homo sapiens, 48 h exposure
Description: as §1

[31] = tested on: T-47D; experiment: NCI SRB cytotoxicity, breast T-47D; format: cell-based; conditions: Homo sapiens, T47D, 48 h exposure
Description: as §1

[32] = tested on: PC-3; experiment: NCI SRB cytotoxicity, prostate PC-3; format: cell-based; conditions: Homo sapiens, 48 h exposure
Description: as §1

In the case of `COc1ccc(C(=O)/C=C/c2cc(-c3cc(OC)c(OC)c(OC)c3)n[nH]2)cc1` [7e, (E)-1-(4-methoxyphenyl)-3-(3-(3,4,5-trimethoxyphenyl)-1H-pyrazol-5-yl)prop-2-en-1-one], the GI50 [1] is reported as 1.92 µM, the GI50 [2] is reported as 2.09 µM and the LC50 [2] is reported as 36.3 µM. For the same molecule, the “Log10 TGI (concentration in mol/L causing total growth inhibition)” value [2] was −5.32 mol/L, the GI50 [3] was 1.72 µM and the GI50 [4] was 1.27 µM. For the same molecule, the GI50 [5] was 2.27 µM, the GI50 [6] was 1.43 µM and the GI50 [7] was 1.51 µM. It also gave a GI50 [8] of 1.62 µM, a GI50 [9] of 2.7 µM and a GI50 [10] of 1.06 µM. The GI50 [11] was 1.66 µM, the LC50 [11] was 24.5 µM and the “Log10 TGI (concentration in mol/L causing total growth inhibition (0% growth))” value [11] was −5.46 mol/L. For the same molecule, the GI50 [12] was 2.4 µM, the CC50 [12] was 47.9 µM and the “Log10 TGI (concentration in mol/L causing total growth inhibition (0% growth))” value [12] was −5.15 mol/L. It also gave a GI50 [13] of 1.85 µM, a GI50 [14] of 1.15 µM and a GI50 [15] of 1.74 µM. It also gave a GI50 [16] of 1.96 µM, a GI50 [17] of 2.22 µM and a GI50 [18] of 2.67 µM. The GI50 [19] was 1.49 µM, the GI50 [20] was 1.82 µM and the LC50 [20] was 21.9 µM. For the same molecule, the “Log10 TGI (concentration in mol/L causing total growth inhibition (0% growth))” value [20] was −5.36 mol/L, the GI50 [21] was 1.99 µM and the GI50 [22] was 1.42 µM. For the same molecule, the GI50 [23] was 2.12 µM, the GI50 [24] was 1.78 µM and the GI50 [25] was 1.45 µM. It also gave a GI50 [26] of 1.58 µM, a GI50 [27] of 1.74 µM and an LC50 [27] of 19.1 µM. For the same molecule, the “Log10 TGI (concentration in mol/L causing total growth inhibition)” value [27] was −5.41 mol/L, the GI50 [28] was 0.34 µM and the GI50 [29] was 1.2 µM. For the same molecule, the CC50 [29] was 100 µM, the “Log10 TGI (concentration in mol/L causing total growth inhibition (0% growth))” value [29] was −5.18 mol/L and the GI50 [30] was 3.99 µM. It also gave a GI50 [31] of 2.31 µM and a GI50 [32] of 1.51 µM.
In the case of `COc1ccc(C(=O)/C=C/c2cc(-c3cc(OC)c(OC)c(OC)c3)n[nH]2)cc1OC` [8e, (E)-1-(3,4-dimethoxyphenyl)-3-(3-(3,4,5-trimethoxyphenyl)-1H-pyrazol-5-yl)prop-2-en-1-one], the GI50 [1] is reported as 1.52 µM, the GI50 [2] is reported as 1.7 µM and the LC50 [2] is reported as 6.17 µM. The “Log10 TGI (concentration in mol/L causing total growth inhibition)” value [2] was −5.49 mol/L, the GI50 [3] was 1.41 µM and the GI50 [4] was 1.35 µM. The GI50 [5] was 1.86 µM, the GI50 [6] was 0.55 µM and the GI50 [7] was 1.42 µM. It also gave a GI50 [8] of 1.27 µM, a GI50 [9] of 3.13 µM and a GI50 [11] of 1.41 µM. For the same molecule, the LC50 [11] was 6.17 µM, the “Log10 TGI (concentration in mol/L causing total growth inhibition (0% growth))” value [11] was −5.53 mol/L and the GI50 [12] was 2.09 µM. For the same molecule, the CC50 [12] was 15.1 µM, the “Log10 TGI (concentration in mol/L causing total growth inhibition (0% growth))” value [12] was −5.29 mol/L and the GI50 [13] was 1.74 µM. It also gave a GI50 [14] of 0.82 µM, a GI50 [15] of 1.48 µM and a GI50 [16] of 1.66 µM. For the same molecule, the GI50 [17] was 1.33 µM, the GI50 [18] was 2.11 µM and the GI50 [19] was 1.23 µM. For the same molecule, the GI50 [20] was 1.23 µM, the LC50 [20] was 6.46 µM and the “Log10 TGI (concentration in mol/L causing total growth inhibition (0% growth))” value [20] was −5.58 mol/L. The GI50 [21] was 1.82 µM, the GI50 [22] was 0.62 µM and the GI50 [23] was 1.78 µM. For the same molecule, the GI50 [24] was 2.13 µM, the GI50 [25] was 1.28 µM and the GI50 [26] was 1.38 µM. For the same molecule, the GI50 [27] was 1.41 µM, the LC50 [27] was 6.17 µM and the “Log10 TGI (concentration in mol/L causing total growth inhibition)” value [27] was −5.52 mol/L. The GI50 [28] was 0.27 µM, the GI50 [29] was 0.794 µM and the CC50 [29] was 97.7 µM. For the same molecule, the “Log10 TGI (concentration in mol/L causing total growth inhibition (0% growth))” value [29] was −5.19 mol/L, the GI50 [30] was 2.79 µM and the GI50 [31] was 1.63 µM. The GI50 [32] was 1.36 µM.
